Among the data in patent US9850247B2 (Almac Discovery Limited, priority 2013, dated 2017) are EC50, IC50 and microsomal CLint values, retold here.

Where two headings read alike, the source gives them in different places.

For data set [1], the system named is phospho-cdc2 (Tyr15) in HT-29 cells. As to the kind of experiment: Effect on Cdc2 phosphorylation at Tyr15, Cell-Based ELISA Base Kit (Method 3). Conditions: eight hours incubation, normalized to total cdc2, read-out: HT29 pCDC2 method 3. The method, then:
Method 3: Determining the Effect of Compounds on the Cdc2 phosphorylation at Tyr15, using a Cell-Based ELISA Base Kit (R&D Systems, KCB001)
The colorectal cancer cell line, HT-29 was purchased from the ATCC and maintained in McCoy's 5 A medium (Gibco®, Life technologies) supplemented with 10% Foetal Calf Serum (FCS).
The cells were trypsinised and counted, 100 μL of 8000 cells was seeded into each well of a clear-bottom black 96-well microplate and incubated overnight to allow adherence to the surface, at 37° C. and 5% CO2 in a cell culture incubator.
Test compounds were formulated in DMSO and diluted in cell culture medium supplemented with FCS. Grow medium was removed from cells and medium containing compounds dilutions was added to each well. The plate was returned to the incubator for an additional eight hours of incubation at 37° C. and 5% CO2.
Post incubation cells were fixed by replacing the compounds supplemented medium with 100 μL of 4% formaldehyde in 1× phosphate buffered saline (PBS), for 20 minutes at room temperature. Formaldehyde solution was removed and cells were washed three times with PBS. The Cell-Based ELISA assay (R&D Systems) was carried out immediately after cell fixation or the plate was sealed and fixed cells were stored in PBS at 4° C. until required (no more than two weeks).
To continue the assay, PBS was removed and cells were washed 3 times for 5 minutes with 200 μL of 1× wash buffer. Each wash step was carried out with gentle shaking. Following washes, 100 μL of 0.6% H2O2 in 1× wash buffer (quenching buffer) was added, plate was sealed and incubated for 20 minutes at room temperature. Post incubation cells were washes 3 times for 5 minutes with 200 μL of 1× wash buffer, with gentle shaking. 100 μL of blocking buffer was added to each well, the plate was re-sealed and incubated at room temperature for 1 h.
After blocking, cells were washed as described above. A primary antibody mixture was prepared by mixing the two primary antibodies, a rabbit monoclonal antibody for phospho-cdc2 (Tyr15) (Cell Signaling, #4539) and mouse monoclonal antibody for total cdc2 p34 (Santa Cruz Biotechnology, sc-54), diluted 1:25 and 1:50 in blocking buffer, respectively. 60 μL of primary antibody mixture was added to each well, the plate was sealed and incubated overnight at 4° C.
The primary antibodies were removed and cells were washed as previously described. 100 μL of secondary antibody mixture, containing horseradish-peroxidase (HRP)-conjugated goat anti-rabbit IgG and alkaline phosphatase (AP)-conjugated goat anti-mouse IgG, diluted 1:100 in blocking buffer, was added to each test well. The plate was re-sealed and incubated for 2 hours at room temperature.
The secondary antibodies were removed and cells washed 2 times with wash buffer, followed by 2 washes with PBS. Each wash step was carried out for 5 minutes with gentle shaking. PBS was removed and 75 μL of fluorogenic substrate for HRP (substrate F1) added to each well. The plate was sealed and incubated for 1 h at room temperature, in the dark. 75 μL of fluorogenic substrate for AP (substrate F2) was added directly to each well, plate re-sealed and incubated for additional 40 minutes at room temperature, protected from direct light.
Following incubation fluorescence from each well was read at 600 nm (signal from substrate 1, phosphorylated protein) and then at 450 nm (signal from substrate 2, total protein).
The percentage of phospho-cdc2 was calculated compared to DMSO control, normalized to the total cdc2 and plotted versus the concentration of inhibitor, using GraphPad Prism. Data was fitted using a non-linear regression analysis and EC50 values generated.
Background: ELISA stands for enzyme-linked immunosorbent assay.

The next data set has as its target T1, Wee-1 kinase (Homo sapiens, UniProt P30291).
T1 construct: purchased Invitrogen PV3817
As to the kind of experiment: Measurement of Wee-1 kinase activity (ADP-Glo luminescent kit). It counts as biochemical. Summed up: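 Activated Wee-1 was pre-incubated 30 min at RT with compound in 40 mM Tris-HCl, 20 mM MgCl2, 0.1 mg/mL BSA and 2 mM DTT. The reaction was started with an aliquot of 2.0 μg/mL poly(Lys,Tyr 4:1) plus 30 μM ATP and run 1 h at RT. ADP-Glo luminescence gave IC50 by non-linear fit.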
(In general: ADP-Glo first removes unused ATP, then detects ADP through luciferase.)

Data set [2] can be described thus: CLint estimates using human liver microsomes (Method 4). It counts as in vitro ADME. Conditions: pH 7.4, 1 μM compound, read-out: Mics - CLint (HLM CLint). Summed up: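 Compound at 1 μM (0.1% DMSO) incubated with human liver microsomes (0.5 mg protein/mL) in 0.1 M phosphate pH 7.4 at 37 °C, started with 1 mM NADPH. Samples taken 2–50 min, quenched in methanol, measured by LC/MS/MS (MRM). Half-life and CLint derived from the slope of ln peak area versus time.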

T1 sequence (P30291 whole entry): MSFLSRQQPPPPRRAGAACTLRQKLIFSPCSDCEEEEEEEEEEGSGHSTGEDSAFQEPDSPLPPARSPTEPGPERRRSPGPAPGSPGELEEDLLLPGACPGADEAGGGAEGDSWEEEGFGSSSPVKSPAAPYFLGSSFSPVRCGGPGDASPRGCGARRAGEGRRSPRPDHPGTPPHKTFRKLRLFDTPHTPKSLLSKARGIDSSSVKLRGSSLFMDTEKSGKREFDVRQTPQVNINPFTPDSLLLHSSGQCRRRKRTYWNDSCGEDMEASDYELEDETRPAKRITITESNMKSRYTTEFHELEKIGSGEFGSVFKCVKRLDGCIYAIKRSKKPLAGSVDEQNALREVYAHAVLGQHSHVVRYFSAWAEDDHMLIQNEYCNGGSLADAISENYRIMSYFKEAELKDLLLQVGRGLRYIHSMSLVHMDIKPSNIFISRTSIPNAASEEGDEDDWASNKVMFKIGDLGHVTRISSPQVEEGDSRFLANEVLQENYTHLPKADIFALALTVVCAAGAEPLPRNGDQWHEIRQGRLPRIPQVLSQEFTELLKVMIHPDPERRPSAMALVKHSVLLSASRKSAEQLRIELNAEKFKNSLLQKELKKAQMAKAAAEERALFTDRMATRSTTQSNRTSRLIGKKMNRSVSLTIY

Regarding `O=C1c2cnc(Nc3ccc(N4CCNCC4)cc3)nc2N(c2ccccc2)CN1c1c(Cl)cccc1Cl` [Example 171, 3-(2,6-dichlorophenyl)-1-phenyl-7-((4-(piperazin-1-yl)phenyl)amino)-2,3-dihydropyrimido[4,5-d]pyrimidin-4(1H)-one], the EC50 in data set [1] (Homo sapiens, HT-29, 8 h) was in the range of 0.1 to 1 µM. Also, the IC50 – broadly, the concentration that gives 50% inhibition – at Wee-1 kinase was not above 0.01 µM.
Turning to `CN1CC=C(c2ccc(Nc3ncc4c(n3)N(C)CN(c3c(Cl)cccc3Cl)C4=O)cc2CO)CC1` [Example 180, 3-(2,6-dichlorophenyl)-7-((3-(hydroxymethyl)-4-(1-methyl-1,2,3,6-tetrahydropyridin-4-yl)phenyl)amino)-1-methyl-2,3-dihydropyrimido[4,5-d]pyrimidin-4(1H)-one], the EC50 in data set [1] (Homo sapiens, HT-29, 8 h) fell in the range of 0.1 to 1 µM. The IC50 at Wee-1 kinase is not above 0.01 µM.
The like results for `CN1CN(c2c(Cl)cccc2Cl)C(=O)c2cnc(Nc3ccc(N4C[C@@H]5C[C@H]4CN5C)c(CO)c3)nc21` [Example 176, 3-(2,6-dichlorophenyl)-7-((3-(hydroxymethyl)-4-((1S,4S)-5-methyl-2,5-diazabicyclo[2.2.1]heptan-2-yl)phenyl)amino)-1-methyl-2,3-dihydropyrimido[4,5-d]pyrimidin-4(1H)-one] were, in that order, 0.1 to 1 µM and not above 0.01 µM.
Regarding `CN1CN(c2c(Cl)cccc2Cl)C(=O)c2cnc(Nc3ccc(N4CC5COCC(C4)N5)c(CO)c3)nc21` [Example 173, 7-((4-(3-oxa-7,9-diazabicyclo[3.3.1]nonan-7-yl)-3-(hydroxymethyl)phenyl)amino)-3-(2,6-dichlorophenyl)-1-methyl-2,3-dihydropyrimido[4,5-d]pyrimidin-4(1H)-one], the EC50 in data set [1] (Homo sapiens, HT-29, 8 h) was in the range of 0.1 to 1 µM. The IC50 on Wee-1 kinase lay within 0.01 to 0.1 µM.
The corresponding values for `CCNCc1cc(Nc2ncc3c(n2)N(C)CN(c2c(Cl)cccc2Cl)C3=O)ccc1N1CCOCC1` [Example 174, 3-(2,6-dichlorophenyl)-7-((3-((ethylamino)methyl)-4-morpholinophenyl)amino)-1-methyl-2,3-dihydropyrimido[4,5-d]pyrimidin-4(1H)-one] are not below 1 µM and 0.01 to 0.1 µM.
Consider `COC[C@H]1CN(c2ccc(Nc3ncc4c(n3)N(C)CN(c3c(Cl)cccc3Cl)C4=O)cc2C(O)C(F)F)CCN1` (single isomer, unassigned) [Example 163], for which the EC50 in data set [1] was 0.1 to 1 µM. The IC50 on Wee-1 kinase was not above 0.01 µM.
Consider `COC[C@H]1CN(c2ccc(Nc3ncc4c(n3)N(C)CN(c3c(Cl)cccc3Cl)C4=O)cc2C(O)C(F)(F)F)CCN1` (single isomer, unassigned) [Example 184], for which the EC50 in data set [1] was not below 1 µM. In addition, the IC50 at Wee-1 kinase was not above 0.01 µM.
For `COC[C@@H]1CNCCN1c1ccc(Nc2ncc3c(n2)N(C)CN(c2c(Cl)cccc2Cl)C3=O)cc1` [Example 130, (S)-3-(2,6-dichlorophenyl)-7-((4-(2-(methoxymethyl)piperazin-1-yl)phenyl)amino)-1-methyl-2,3-dihydropyrimido[4,5-d]pyrimidin-4(1H)-one], the microsomal CLint at 1 μM in data set [2] is 15 to 50 µL/min/mg. Also, on Wee-1 kinase, the IC50 fell in the range of 0.01 to 0.1 µM.
Regarding `Cc1cccc(Cl)c1N1CN(C)c2nc(Nc3ccc(N4C[C@H](C)NC[C@H]4C)cc3)ncc2C1=O` [Example 102, 3-(2-chloro-6-methylphenyl)-7-((4-((2R,5S)-2,5-dimethylpiperazin-1-yl)phenyl)amino)-1-methyl-2,3-dihydropyrimido[4,5-d]pyrimidin-4(1H)-one], the microsomal CLint at 1 μM in data set [2] was not above 15 µL/min/mg. The IC50 on Wee-1 kinase is 0.01 to 0.1 µM.
For `CN1CN(c2ccccc2Cl)C(=O)c2cnc(Nc3ccc(N4CC5CCC(C4)N5C)c(CO)c3)nc21` [Example 97, 3-(2-chlorophenyl)-7-((3-(hydroxymethyl)-4-(8-methyl-3,8-diazabicyclo[3.2.1]octan-3-yl)phenyl)amino)-1-methyl-2,3-dihydropyrimido[4,5-d]pyrimidin-4(1H)-one], the microsomal CLint at 1 μM in data set [2] is not above 15 µL/min/mg. In addition, the IC50 at Wee-1 kinase fell in the range of 0.01 to 0.1 µM.
Turning to `CN1CN(c2ccccc2Cl)C(=O)c2cnc(Nc3ccc(N4CCNC(C)(C)C4)cc3)nc21` [Example 106, 3-(2-chlorophenyl)-7-((4-(3,3-dimethylpiperazin-1-yl)phenyl)amino)-1-methyl-2,3-dihydropyrimido[4,5-d]pyrimidin-4(1H)-one], the microsomal CLint at 1 μM in data set [2] is not above 15 µL/min/mg. Also, the IC50 on Wee-1 kinase fell in the range of 0.01 to 0.1 µM.
The corresponding values for `CN1CN(c2c(Cl)cccc2Cl)C(=O)c2cnc(Nc3ccc(N4CCN(C5CC5)CC4)cc3)nc21` [Example 115, 7-((4-(4-cyclopropylpiperazin-1-yl)phenyl)amino)-3-(2,6-dichlorophenyl)-1-methyl-2,3-dihydropyrimido[4,5-d]pyrimidin-4(1H)-one] are 15 to 50 µL/min/mg and not below 0.1 µM.
Turning to `CNCc1cc(Nc2ncc3c(n2)N(C)CN(c2c(Cl)cccc2Cl)C3=O)ccc1Br` [Example 157, 7-((4-bromo-3-((methylamino)methyl)phenyl)amino)-3-(2,6-dichlorophenyl)-1-methyl-2,3-dihydropyrimido[4,5-d]pyrimidin-4(1H)-one], in data set [2], the microsomal CLint at 1 μM was not above 15 µL/min/mg. Further, the IC50 at Wee-1 kinase fell in the range of 0.01 to 0.1 µM.
As to `C[C@@H]1CN(c2ccc(Nc3ncc4c(n3)N(c3ccn(C)n3)CN(c3c(Cl)cccc3Cl)C4=O)cc2)CCN1` [Example 58, (R)-3-(2,6-dichlorophenyl)-1-(1-methyl-1H-pyrazol-3-yl)-7-((4-(3-methylpiperazin-1-yl)phenyl)amino)-2,3-dihydropyrimido[4,5-d]pyrimidin-4(1H)-one], in data set [2], the microsomal CLint at 1 μM is not above 15 µL/min/mg. On Wee-1 kinase, the IC50 was not above 0.01 µM.
The like results for `CNCc1cc(Nc2ncc3c(n2)N(C)CN(c2c(Cl)cccc2Cl)C3=O)ccc1-c1cccnc1` [Example 156, 3-(2,6-dichlorophenyl)-1-methyl-7-((3-((methylamino)methyl)-4-(pyridin-3-yl)phenyl)amino)-2,3-dihydropyrimido[4,5-d]pyrimidin-4(1H)-one] were, in that order, 15 to 50 µL/min/mg and 0.01 to 0.1 µM.
On to `CN1CN(c2c(Cl)cccc2Cl)C(=O)c2cnc(Nc3ccc(N4CC5COCC(C4)N5)cc3)nc21` [Example 64, 7-((4-(3-oxa-7,9-diazabicyclo[3.3.1]nonan-7-yl)phenyl)amino)-3-(2,6-dichlorophenyl)-1-methyl-2,3-dihydropyrimido[4,5-d]pyrimidin-4(1H)-one], for which, in data set [2], the microsomal CLint at 1 μM was not above 15 µL/min/mg. The IC50 at Wee-1 kinase lay within 0.01 to 0.1 µM.
As to `Cc1cc(Nc2ncc3c(n2)N(C)CN(c2c(Cl)cccc2Cl)C3=O)ccc1N1C[C@@H]2C[C@H]1CN2` [Example 75, 7-((4-((1S,4S)-2,5-diazabicyclo[2.2.1]heptan-2-yl)-3-methylphenyl)amino)-3-(2,6-dichlorophenyl)-1-methyl-2,3-dihydropyrimido[4,5-d]pyrimidin-4(1H)-one], the microsomal CLint at 1 μM in data set [2] was not above 15 µL/min/mg. The IC50 on Wee-1 kinase was not above 0.01 µM.
As for `Cc1cc(Nc2ncc3c(n2)N(C)CN(c2c(C)cccc2Cl)C3=O)ccc1N1C[C@@H]2C[C@H]1CN2` [Example 112, 7-((4-((1S,4S)-2,5-diazabicyclo[2.2.1]heptan-2-yl)-3-methylphenyl)amino)-3-(2-chloro-6-methylphenyl)-1-methyl-2,3-dihydropyrimido[4,5-d]pyrimidin-4(1H)-one], the microsomal CLint at 1 μM in data set [2] is not above 15 µL/min/mg. The IC50 on Wee-1 kinase lay in the range of 0.01 to 0.1 µM.
